Here are results for 28 compounds from patent US9510598B2, “Nitrogen-containing heterocyclic compounds for plant disease control” (BAYER CROPSCIENCE AG, priority 2012, dated 2016).

SMILES strings stand for the structures.

This data set is classed as physicochemical. To be noted: HPLC on reversed phase columns, method [a]: pH 2.7, 0.1% formic acid in water / acetonitrile, linear gradient 10% to 95% acetonitrile.
Regarding `CC(C)NC(=O)C1(F)CC(c2ccc3ncc(Br)cc3c2)=NO1` (stereo not shown) [compound 280], the “log P” value was 2.69[a].
The same measure for `CC(=O)C1(C(=O)NC(C)C)CC(c2ccc3ncc(Br)cc3c2)=NO1` (stereo not shown) [compound 281]: 2.88[a].
For `CCC1C(c2ccc3ncc(Br)cc3c2)=NOC1(C)C(=O)NC(C)C` (stereo not shown) [compound 283] the value was 3.76[a].
For `CCn1cc(CNC(=O)C2(C)CC(c3ccc4ncc(C#N)cc4c3)=NO2)c(C)n1` (stereo not shown) [compound 288] the value was 1.80[a].
Regarding `CN(C)CCCNC(=O)C1(C)CC(c2ccc3ncc(Br)cc3c2)=NO1` (stereo not shown) [compound 297], the “log P” value was 1.23[a].
For `COCC#CC(C)(C)NC(=O)C1(C)CC(c2ccc3ncc(Br)cc3c2)=NO1` (stereo not shown) [compound 299] the value was 3.19[a]; for `CCn1cc(CNC(=O)C2(C)CC(c3ccc4nc(C#N)c(Br)cc4c3)=NO2)c(C)n1` (stereo not shown) [compound 302], 2.57[a]; for `CC(C)NC(=O)C1(C)CC(c2ccc3nc(C#N)c(Br)cc3c2)=NO1` (stereo not shown) [compound 303], 3.00[a].
For `C=Cc1cnc2ccc(C3=NOC(C)(C(=O)NCc4cn(CC)nc4C)C3)cc2c1` (stereo not shown) [compound 308] the value was 1.95[a]; for `CC1CCCC1(C#N)NC(=O)C1(C)CC(c2ccc3ncc(Br)cc3c2)=NO1` (stereo not shown) [compound 313], 3.27[a]; for `CC1(C(=O)NC(COc2ccc(F)cc2)C2CC2)CC(c2ccc3ncc(Br)cc3c2)=NO1` (stereo not shown) [compound 315], 3.99[a].
The same measure for `C#Cc1cnc2ccc(C3=NOC(C)(C(=O)NC(C)CC(C)C)C3)cc2c1` (stereo not shown) [compound 316]: 3.37[a]; for `CC1(C(=O)NC2CC2)CC(c2ccc3ncc(Br)cc3c2)=NO1` (stereo not shown) [compound 317]: 2.40[a].
For the compound `C#Cc1cnc2ccc(C3=NOC(C)(C(=O)NC(COc4ccc(F)cc4)C4CC4)C3)cc2c1` (stereo not shown) [compound 318], the “log P” value was 3.58[a].
For the compound `CC(C)(C)NC(=O)C1(C)CC(c2ccc3ncc(Br)cc3c2)=NO1` (stereo not shown) [compound 319], the “log P” value is 3.39[a].
The same measure for `C#Cc1cnc2ccc(C3=NOC(C)(C(=O)NC(C)(C)C(C)C)C3)cc2c1` (stereo not shown) [compound 320]: 3.71[a]; for `CC(C)CC(C)NC(=O)C1(C)CC(c2ccc3ncc(Br)cc3c2)=NO1` (stereo not shown) [compound 321]: 3.80[a]; for `C#Cc1cnc2ccc(C3=NOC(C)(C(=O)NC(C#N)c4ccccc4)C3)cc2c1` (stereo not shown) [compound 324]: 2.88[a].
For `CC(C)C(C)(C)NC(=O)C1(C)CC(c2ccc3ncc(Br)cc3c2)=NO1` (stereo not shown) [compound 325], the “log P” value is 4.19[a].
For `CC(NC(=O)C1(C)CC(c2ccc3ncc(Br)cc3c2)=NO1)c1nn(C)c(=O)n1C` (stereo not shown) [compound 327] the value was 1.99[a]; for `CC(C)CCC(C)NC(=O)C1(C)CC(c2ccc3ncc(Br)cc3c2)=NO1` (stereo not shown) [compound 328], 4.21[a].
For `CC(NC(=O)C1(C)CC(c2ccc3ncc(Br)cc3c2)=NO1)c1cccc2ccccc12` (stereo not shown) [compound 340] the value was 4.09[a].
As to `C#Cc1cnc2ccc(C3=NOC(C)(C(=O)NC(C)c4ccc(OC(F)(F)F)cc4)C3)cc2c1` (stereo not shown) [compound 342], the “log P” value is 3.71[a].
For `CC(NC(=O)C1(C)CC(c2ccc3ncc(Br)cc3c2)=NO1)c1ccc(OC(F)(F)F)cc1` (stereo not shown) [compound 344] the value was 4.16[a].
For `C#Cc1cnc2ccc(C3=NOC(C)(C(=O)NC(C)c4ccc(Cl)cc4)C3)cc2c1` (stereo not shown) [compound 346] the value was 3.44[a]; for `CC(NC(=O)C1(C)CC(c2ccc3ncc(Br)cc3c2)=NO1)c1ccc(Cl)cc1` (stereo not shown) [compound 348], 3.87[a].
The same measure for `C#Cc1cnc2ccc(C3=NOC(C)(C(=O)NC(C)c4nn(C)c(=O)n4C)C3)cc2c1` (stereo not shown) [compound 352]: 1.76[a]; for `C#Cc1cnc2ccc(C3=NOC(C)(C(=O)NC(c4cccc(C)c4)C(F)(F)F)C3)cc2c1` (stereo not shown) [compound 354]: 3.92[a].
